According to patent US11932874B2, “Method for culturing mesenchymal stem cells using gamma-irradiated serum” (R Bio CO., Ltd., priority 2018, dated 2024):

Columns and labels:
Assay type in all cases: cell-based
[1] = test system: human adipose tissue-derived stem cells; test: Viability of stem cells cultured in 30 kGy gamma-irradiated FBS (Example 5): cell number, size, viability, doubling time; settings: 30 kGy FBS, 4 days; for Cell No. / Cell size / DT / Viability: average (n = 3)
Method: Fetal bovine serum (FBS) was irradiated with 30 kGy of gamma radiation, thereby preparing gamma-irradiated FBS. Vitamin C (ascorbic acid; L-Ascorbic Acid 2-phosphate) was added to the FBS which was then irradiated with 30 kGy of gamma irradiation, thereby preparing gamma-irradiated FBS pretreated with vitamin C. The vitamin C was added to the FBS at a concentration of 1%. Then, the human adipose tissue-derived stem cells at passage 3, isolated in Example 1, were thawed and inoculated into T75 flasks at a concentration of 0.5×10^6 cells/T75 flask, and the inoculated cells were cultured with AMSC+ culture medium (R-Bio Co., Ltd.) containing the prepared gamma-irradiated FBS or gamma-irradiated FBS pretreated with vitamin C at a concentration of 5% in a CO2 incubator at 37° C. for 2 days. After 2 days of culture, the medium was removed and replaced with AMSC+ culture medium containing 5% gamma-irradiated FBS (a negative control group), medium obtained by adding vitamin C to AMSC+ culture medium containing 5% gamma-irradiated FBS (a vitamin C post-treatment test group), or medium obtained by adding vitamin C to AMSC+ culture medium containing 5% gamma-irradiated FBS pretreated with vitamin C (a vitamin C pre- and post-treatment test group) (Table 4). Vitamin C was added to the culture medium or FBS at a concentration of 1%. After 4 days of culture (FIG. 6), the cell proliferation rate, cell number, viability and doubling time of the stem cells were examined. A positive control group was also prepared as described in Example 2 above. [table]

[2] = test system: human adipose tissue-derived stem cells; test: Adhesion and proliferation rate of stem cells cultured in 30 kGy gamma-irradiated FBS over passages (Example 6); settings: 30 kGy FBS
Method: Fetal bovine serum (FBS) was irradiated with 30 kGy of gamma radiation, thereby preparing gamma-irradiated FBS. The gamma-irradiated FBS was added to AMSC+ culture medium (R-Bio Co., Ltd.) at a concentration of 5%, and 1% vitamin C was added to the culture medium, thereby preparing a medium (a vitamin C post-treatment group). Then, the human adipose tissue-derived stem cells at passage 1, isolated in Example 1, were thawed and inoculated into T25 flasks at a concentration of 0.7×10^3 cells/T25 flask, and the inoculated cells were cultured with AMSC+ culture medium (R-Bio Co., Ltd.) containing the prepared gamma-irradiated FBS at a concentration of 5% in a CO2 incubator at 37° C. for 2 days. After 2 days of culture, the medium was removed and replaced with AMSC+ culture medium containing 5% normal FBS (a positive control group), or medium obtained by adding vitamin C to AMSC+ culture medium containing 5% gamma-irradiated FBS (a vitamin C post-treatment test group). Vitamin C was added to the culture medium at a concentration of 1%. […] The stem cell adhesion shown in FIGS. 11A-11C was examined with a Leica microscope, and the cell number, cell size and viability shown in Tables 6 to 9 were examined with Luna™ Automated cell counter L10001 (Logos Biosystems).

[3] = test system: human adipose tissue-derived stem cells; test: Differentiation into adipocytes, oil red O staining (Example 7); settings: 30 KGy gamma radiation, post-treated with 1% vitamin C, passage 4
Method: (§1) For the positive control group and vitamin C post-treatment test group of Example 6, the purity and characteristics of the stem cells at passage 4 were examined. The purity of the stem cells was examined by analyzing the expression of CD markers using FACS (FIG. 12 and Table 10), and the characteristics of the stem cells were examined by analyzing differentiation into adipocytes, osteocytes and chondrocytes (FIGS. 13 to 15). Differentiation into adipocytes was analyzed by oil red 0 staining according to the Sigma-Aldrich protocol, and differentiation into osteocytes was analyzed by alizarin red S staining according to the Lifeline Cell Tech's protocol, and differentiation into chondrocytes was analyzed by TSP2 ELISA.

[4] = test system: human adipose tissue-derived stem cells; test: Expression of stem cell CD markers by FACS (Example 7); design: CD73 expression (FACS) / CD31 expression (FACS) / CD34 expression (FACS) / CD45 expression (FACS): unit not given here; settings: for CD31 expression (FACS) / CD34 expression (FACS) / CD45 expression (FACS) / CD73 expression (FACS) / CD90 expression (FACS): 30 kGy FBS; for CD90 expression (FACS): in % (unit assumed)
Method: as §1

[5] = 1% Vit. C pre-treatment + 1% Vit. C post-treatment
[6] = Stem cells #1 P1, 1% vitamin C post-treatment
[7] = Stem cells #1 P2, 1% vitamin C post-treatment
[8] = Stem cells #1 P3, 1% vitamin C post-treatment
[9] = Stem cells #1 P4, 1% vitamin C post-treatment
[10] = Stem cells #2 P1, 1% vitamin C post-treatment
[11] = Stem cells #2 P2, 1% vitamin C post-treatment
[12] = Stem cells #2 P3, 1% vitamin C post-treatment
[13] = Stem cells #2 P4, 1% vitamin C post-treatment
[14] = Stem cells #3 P1, 1% vitamin C post-treatment
[15] = Stem cells #3 P2, 1% vitamin C post-treatment
[16] = Stem cells #3 P3, 1% vitamin C post-treatment
[17] = Stem cells #3 P4, 1% vitamin C post-treatment

O=C1O[C@H]([C@@H](O)CO)C(O)=C1OP(=O)(O)O [AA2P, L-Ascorbic Acid 2-phosphate]
Cell No. ([1]; 1% Vit. C post-treatment): 4.3 ×10^6 cells
Cell size ([1]; 1% Vit. C post-treatment): 19.3 μm
DT ([1]; 1% Vit. C post-treatment): 29.9 h
Viability ([1]; 1% Vit. C post-treatment): 86.9%
Cell No. [1, 5]: 5.7 ×10^6 cells
Cell size [1, 5]: 20.3 μm
DT [1, 5]: 28.1 h
Viability [1, 5]: 86.5%
Cell No. ([1]; 1% Vit. C pre-treatment): 5.8 ×10^6 cells
Cell size ([1]; 1% Vit. C pre-treatment): 18.8 μm
DT ([1]; 1% Vit. C pre-treatment): 27.6 h
Viability ([1]; 1% Vit. C pre-treatment): 92.3%
cell number, viability and doubling time versus positive control group ([1]; vitamin C post-treatment test group): increased to the levels of the positive control group
adhesion, cell number, cell size and viability versus positive control group ([2]; 1% vitamin C post-treatment, stem cells at passages 2 to 4): did not differ from those of the positive control group
Cell number [2, 6]: 2.4 × 10^7 cells
Cell size [2, 6]: 19.1 μm
Viability [2, 6]: 84.4%
Cell number [2, 7]: 1.6 × 10^7 cells
Cell size [2, 7]: 19.5 μm
Viability [2, 7]: 83%
Cell number [2, 8]: 2.0 × 10^7 cells
Cell size [2, 8]: 19.2 μm
Viability [2, 8]: 88.7%
Cell number [2, 9]: 3.3 × 10^8 cells
Cell size [2, 9]: 20 μm
Viability [2, 9]: 87.5%
Cell number [2, 10]: 1.8 × 10^7 cells
Cell size [2, 10]: 20 μm
Viability [2, 10]: 89.6%
Cell number [2, 11]: 1.8 × 10^7 cells
Cell size [2, 11]: 19.3 μm
Viability [2, 11]: 95.5%
Cell number [2, 12]: 1.2 × 10^7 cells
Cell size [2, 12]: 19.7 μm
Viability [2, 12]: 88.9%
Cell number [2, 13]: 1.5 × 10^8 cells
Cell size [2, 13]: 18.8 μm
Viability [2, 13]: 95.6%
Cell number [2, 14]: 2.3 × 10^7 cells
Cell size [2, 14]: 19.6 μm
Viability [2, 14]: 87.1%
Cell number [2, 15]: 1.4 × 10^7 cells
Cell size [2, 15]: 18 μm
Viability [2, 15]: 82%
Cell number [2, 16]: 1.4 × 10^7 cells
Cell size [2, 16]: 19.3 μm
Viability [2, 16]: 88.2%
Cell number [2, 17]: 2.1 × 10^8 cells
Cell size [2, 17]: 17.8 μm
Viability [2, 17]: 88.0%
differentiation into adipocytes versus positive control group [3]: did not differ from those of the positive control group
expression of CD markers versus positive control group ([4]; 30 KGy gamma radiation, post-treated with 1% vitamin C, passage 4): did not differ from that in the positive control group
CD31 expression (FACS) [4, 9]: 0.52
CD34 expression (FACS) [4, 9]: 0.31
CD45 expression (FACS) [4, 9]: 0.49
CD73 expression (FACS) [4, 9]: 94.30
CD90 expression (FACS) [4, 9]: 99.98
CD31 expression (FACS) [4, 13]: 0.16
CD34 expression (FACS) [4, 13]: 0.14
CD45 expression (FACS) [4, 13]: 0.11
CD73 expression (FACS) [4, 13]: 93.42
CD90 expression (FACS) [4, 13]: 99.99
CD31 expression (FACS) [4, 17]: 0.47
CD34 expression (FACS) [4, 17]: 0.70
CD45 expression (FACS) [4, 17]: 0.78
CD73 expression (FACS) [4, 17]: 91.45
CD90 expression (FACS) [4, 17]: 99.99
